{"source": "patent US7550154B2", "about": "“Methods of treatment with drug loaded polymeric materials” (Yale University, priority 2004, dated 2009)", "origin": "cited, not measured here"}
{"smiles": "COc1cccc2c1C(=O)c1c(O)c3c(c(O)c1C2=O)C[C@@](O)(C(=O)CO)C[C@@H]3O[C@H]1C[C@H](N)[C@H](O)[C@H](C)O1", "note": "[Dox, doxorubicin]", "values": [{"measurement": "solubility in aqueous environments", "value": "limited solubility"}]}
